Data on 38 molecules can be found in the ASAP Discovery antiviral challenge data (2025).

“And” between values parts separate entries of the source, which are not always exact repeats. Equal entries are not always repeated.

For one data set the following is noted: mdck_mdr1.
Broadly, the Papp is the rate of passage across a membrane or cell layer, normalised by area and donor concentration. `CNC(=O)c1cc(Cl)c(F)cc1NS(=O)(=O)c1ccc(Oc2ccccc2Cl)cc1`: the Papp came to 61.1 nm/s.
Consider `O=C(Nc1ccc2c(c1)CNC2)c1cc(F)cc2[nH]c(-c3ccc(F)cc3)nc12`, for which the apparent permeability (Papp) was 1 nm/s.
Same read-out and setting: next, `CC(C)[C@H](Nc1ncnc2[nH]ccc12)c1ccc2c(c1)NC(=O)CO2` (single isomer, unassigned): 34 nm/s and 87 nm/s; `CC(C)[C@H](Nc1ncnc2[nH]c(-c3cnn(CC(N)=O)c3)cc12)c1ccc2c(c1)OCCO2` (single isomer, unassigned): 10.9 nm/s and 18.7 nm/s.
`O=C(Nc1cc2c(c(-c3c[nH]c(=O)c(F)c3)c1)CNC2)c1cc(F)cc2[nH]ncc12` displayed a Papp of 6.51 nm/s.
For the molecule `O=C(Nc1cc2c(c(C3=CCS(=O)(=O)CC3)c1)CNC2)c1cc(F)cc2[nH]ncc12`, the Papp was 13 nm/s.
Molecule `CC(C)NC(=O)[C@H](Nc1ccc2c(c1)CNC2)c1cc(Cl)cc2[nH]c(-c3ccccc3)nc12` (single isomer, unassigned) registered a Papp of 2 nm/s.
On the same count and under the same terms, the same measure for `COc1ccc([C@H](CC(=O)O)NC(=O)c2ncnc3[nH]ccc23)cc1` (racemic): 17 nm/s.

Settings in another data set: not given
As a reminder, the logD is lipophilicity at a set pH, counting ionised and neutral species. High values mean higher lipophilicity, low ones lower lipophilicity. Take `Cn1ncc(-c2cc3c(N[C@H](c4ccc5c(n4)OCCO5)C(C)(C)C)ncnc3[nH]2)c1C#N` (racemic): the logD is 2.7.
The same measure, in the same setting: next, `CC(C)[C@H](Nc1ncnc2[nH]c(-c3cnn(C)c3C#N)cc12)c1ccc2c(c1)NC(=O)CO2` (racemic): 4.1; `O=C(Nc1ccc2c(c1)CNC2)c1cc(Cl)cc2[nH]ncc12`: 0.9; `CC(C)[C@H](Nc1ncnc2[nH]c(-c3cnn(CC(=O)N(C)C)c3)cc12)c1ccc2c(c1)S(=O)(=O)CCC2` (racemic): 2.1.
In the case of `CNC(=O)c1cc2c(N[C@H](c3ccc4c(c3)OCCO4)C(C)C)ncnc2[nH]1` (racemic), the logD came out at 2.76.
Still for that read-out and setting: next, `CNCc1cc(-c2cc3c(N[C@H](c4ccc5c(c4)S(=O)(=O)CCC5)C(C)C)ncnc3[nH]2)co1` (single isomer, unassigned): 2.1 and 2.2.
Still for that read-out and setting: the same measure for `CCNC(=O)c1cc2c(N[C@H](c3ccc4c(c3)S(=O)(=O)CCO4)C(C)C)ncnc2[nH]1` (racemic): 2.9; for `CCNC(=O)c1cc2c(N[C@H](c3ccc4c(c3)S(=O)(=O)CCC4)C(C)C)ncnc2[nH]1` (racemic): 2.8; for `CC(C)[C@H](Nc1ncnc2[nH]c(-c3cnn(C)c3C#N)cc12)c1ccc2c(c1)OCCO2` (racemic): 3.
The same measure, in the same setting: next, `O=C(Nc1ccc2c(c1)CNC2)c1cc(Cl)cc2c1cnn2C1CCC1`: 2; `N#Cc1cccc(-c2nc3c(C(=O)Nc4ccc5c(c4)CNC5)cc(F)cc3[nH]2)c1`: 2.
For the molecule `O=C(Nc1cc2c(cc1Br)CNC2)c1cc(F)cc2[nH]ncc12`, the logD was found to be 1.1.
In turn, `CC(C)[C@H](CO)Nc1ncnc2[nH]ccc12` had a logD of 1.69.
With `Cn1cc2c(C(=O)Nc3ccc4c(c3)CNC4)cc(F)cc2n1`, the logD worked out at 0.2.
Molecule `O=C(Nc1cc2c(cc1C1CC1)CNC2)c1cc(F)cc2[nH]ncc12` came in with a logD of 0.7.
As for `CCNC(=O)c1cc2c(N[C@H](c3ccc4c(c3)S(=O)(=O)CCC4)C(C)C)ncnc2[nH]1` (single isomer, unassigned), the logD is 2.7 and 2.8.
`O=C(Nc1cccc2c(C(=O)N[C@H]3c4ccccc4C[C@H]3C(=O)O)c[nH]c12)NC1CC1` (racemic) gave a logD of -0.05.
Still for that read-out and setting: next, `O=C(Nc1cc2c(c(C3=CCOCC3)c1)CNC2)c1cc(F)cc2[nH]ncc12`: 0.9; `O=C(Nc1ccc2c(c1)CNC2)c1cc(Cl)cc2cn[nH]c12`: 1.2.
For `O=C(Nc1ccc2c(c1)CNC2)c1cc(F)cc2c1CCC2`, the logD is 1.2.
Same read-out and setting: next, `O=C(Nc1ccc2c(c1)CNC2)c1cc(Cl)cc2ccncc12`: 0.6; `CC(C)[C@H](Nc1ncnc(N)c1Cl)c1ccc2c(c1)S(=O)(=O)CCC2` (racemic): 2.4.
The molecule `Cn1c(=O)[nH]c2c(C(=O)Nc3ccc4c(c3)CNC4)cc(Br)cc21` gave a logD of 0.5.
On the same count and under the same terms, next, `COc1cc(-c2cc(NC(=O)c3cc(F)cc4[nH]ncc34)cc3c2CNC3)ccn1`: 2; `COc1ccc([C@H](NC(=O)c2ncnc3[nH]ccc23)C(C)c2nnn[nH]2)cc1` (mixture of isomers): 0.
As for `CNC(=O)c1cc2c(N[C@H](c3ccc4c(c3)S(=O)(=O)CCC4)C(C)C)ncnc2[nH]1` (single isomer, unassigned), the logD was 2.3 and 2.4.
For `O=C(Nc1ccc2c(c1)CNC2)c1cc(Br)cc2[nH]c(-c3ccccc3)nc12`, the logD is 3.6.
The same measure, in the same setting: next, `O=C(Nc1ccc2c(c1)CNC2)c1cc(F)cc2[nH]c(-c3ccc(F)cc3)nc12`: 2.9; `CC(C)[C@H](Nc1ncnc2[nH]ccc12)c1ccc2c(c1)NC(=O)CO2` (single isomer, unassigned): 1.8 and 2.2; `CC(C)[C@H](Nc1ncnc2[nH]c(-c3cnn(CC(N)=O)c3)cc12)c1ccc2c(c1)OCCO2` (single isomer, unassigned): 2.9.
The same measure, in the same setting: the same measure for `O=C(Nc1cc2c(c(-c3c[nH]c(=O)c(F)c3)c1)CNC2)c1cc(F)cc2[nH]ncc12`: 0.4.
The molecule `O=C(Nc1cc2c(c(C3=CCS(=O)(=O)CC3)c1)CNC2)c1cc(F)cc2[nH]ncc12` displayed a logD of -0.1.
Take `CC(C)NC(=O)[C@H](Nc1ccc2c(c1)CNC2)c1cc(Cl)cc2[nH]c(-c3ccccc3)nc12` (single isomer, unassigned): the logD came to 2.8.
The molecule `COc1ccc([C@H](CC(=O)O)NC(=O)c2ncnc3[nH]ccc23)cc1` (racemic) displayed a logD of -0.38.

The conditions of a further data set: mouse; liver_microsomes.
Usually microsomal CLint stands for the rate of metabolic loss divided by the concentration. A lower microsomal CLint goes with slow turnover. Molecule `Cn1ncc(-c2cc3c(N[C@H](c4ccc5c(n4)OCCO5)C(C)(C)C)ncnc3[nH]2)c1C#N` (racemic) yielded a microsomal CLint of 209 µL/min/mg.
Same read-out and setting: the same measure for `CC(C)[C@H](Nc1ncnc2[nH]c(-c3cnn(C)c3C#N)cc12)c1ccc2c(c1)NC(=O)CO2` (racemic): 177 µL/min/mg; for `O=C(Nc1ccc2c(c1)CNC2)c1cc(Cl)cc2[nH]ncc12`: 243 µL/min/mg; for `CC(C)[C@H](Nc1ncnc2[nH]c(-c3cnn(CC(=O)N(C)C)c3)cc12)c1ccc2c(c1)S(=O)(=O)CCC2` (racemic): 68 µL/min/mg.
Same read-out and setting: next, `CNC(=O)c1cc2c(N[C@H](c3ccc4c(c3)OCCO4)C(C)C)ncnc2[nH]1` (racemic): 55 µL/min/mg.
As to `CNCc1cc(-c2cc3c(N[C@H](c4ccc5c(c4)S(=O)(=O)CCC5)C(C)C)ncnc3[nH]2)co1` (single isomer, unassigned), the microsomal CLint is 40 µL/min/mg and 54 µL/min/mg.
For the molecule `CCNC(=O)c1cc2c(N[C@H](c3ccc4c(c3)S(=O)(=O)CCO4)C(C)C)ncnc2[nH]1` (racemic), the microsomal CLint stood at 26 µL/min/mg.
The same measure, in the same setting: the same measure for `CCNC(=O)c1cc2c(N[C@H](c3ccc4c(c3)S(=O)(=O)CCC4)C(C)C)ncnc2[nH]1` (racemic): 85 µL/min/mg; for `CC(C)[C@H](Nc1ncnc2[nH]c(-c3cnn(C)c3C#N)cc12)c1ccc2c(c1)OCCO2` (racemic): 218 µL/min/mg; for `O=C(Nc1ccc2c(c1)CNC2)c1cc(Cl)cc2c1cnn2C1CCC1`: 13.4 µL/min/mg.
Still for that read-out and setting: next, `N#Cc1cccc(-c2nc3c(C(=O)Nc4ccc5c(c4)CNC5)cc(F)cc3[nH]2)c1`: 22 µL/min/mg.
On the same count and under the same terms, next, `O=C(Nc1cc2c(cc1Br)CNC2)c1cc(F)cc2[nH]ncc12`: 299 µL/min/mg; `CC(C)[C@H](CO)Nc1ncnc2[nH]ccc12`: 10 µL/min/mg.
For `Cn1cc2c(C(=O)Nc3ccc4c(c3)CNC4)cc(F)cc2n1`, the microsomal CLint came out at 18.2 µL/min/mg.
Consider `O=C(Nc1cc2c(cc1C1CC1)CNC2)c1cc(F)cc2[nH]ncc12`, for which the microsomal CLint is 86.8 µL/min/mg.
Take `CCNC(=O)c1cc2c(N[C@H](c3ccc4c(c3)S(=O)(=O)CCC4)C(C)C)ncnc2[nH]1` (single isomer, unassigned): the microsomal CLint was 64 µL/min/mg and 54 µL/min/mg.
The molecule `O=C(Nc1cccc2c(C(=O)N[C@H]3c4ccccc4C[C@H]3C(=O)O)c[nH]c12)NC1CC1` (racemic) came in with a microsomal CLint of 4 µL/min/mg.
Molecule `O=C(Nc1cc2c(c(C3=CCOCC3)c1)CNC2)c1cc(F)cc2[nH]ncc12` had a microsomal CLint of 152 µL/min/mg.
With `O=C(Nc1ccc2c(c1)CNC2)c1cc(Cl)cc2cn[nH]c12`, the microsomal CLint worked out at 54 µL/min/mg.
Same read-out and setting: next, `O=C(Nc1ccc2c(c1)CNC2)c1cc(F)cc2c1CCC2`: 37.4 µL/min/mg; `O=C(Nc1ccc2c(c1)CNC2)c1cc(Cl)cc2ccncc12`: 24.5 µL/min/mg; `CC(C)[C@H](Nc1ncnc(N)c1Cl)c1ccc2c(c1)S(=O)(=O)CCC2` (racemic): 204 µL/min/mg.
In the case of `CC(C)[C@H](Nc1ncnc2[nH]c(-c3cnn(C)c3C#N)cc12)c1ccc2c(c1)NC(=O)CO2` (single isomer, unassigned), the microsomal CLint was 81 µL/min/mg and 147 µL/min/mg.
`Cn1c(=O)[nH]c2c(C(=O)Nc3ccc4c(c3)CNC4)cc(Br)cc21`: the intrinsic metabolic clearance (microsomal CLint) turned out to be 12.5 µL/min/mg.
In the case of `COc1cc(-c2cc(NC(=O)c3cc(F)cc4[nH]ncc34)cc3c2CNC3)ccn1`, the microsomal CLint is 260 µL/min/mg.
Molecule `COc1ccc([C@H](NC(=O)c2ncnc3[nH]ccc23)C(C)c2nnn[nH]2)cc1` (mixture of isomers) displayed a microsomal CLint of 1 µL/min/mg.
In the case of `CNC(=O)c1cc2c(N[C@H](c3ccc4c(c3)S(=O)(=O)CCC4)C(C)C)ncnc2[nH]1` (single isomer, unassigned), the microsomal CLint was 47 µL/min/mg and 23 µL/min/mg.
`CCCC[C@H](NC(=O)OC(C)(C)C)C(=O)N[C@H](C(=O)NCc1ccc(CN)cc1)c1ccc(OCc2ccccc2)cc1` (mixture of isomers): the microsomal CLint is 7.44 µL/min/mg.
Same read-out and setting: next, `Cc1cc(-c2noc(C(F)(F)F)n2)ccc1OCCCc1cc(C(=O)N(C)C)no1`: 24.4 µL/min/mg; `O=C(Nc1ccc2c(c1)CNC2)c1cc(Br)cc2[nH]c(-c3ccccc3)nc12`: 43.8 µL/min/mg.
On to `CNC(=O)c1cc(Cl)c(F)cc1NS(=O)(=O)c1ccc(Oc2ccccc2Cl)cc1`, for which the microsomal CLint was determined as 45.6 µL/min/mg.
In the case of `O=C(Nc1ccc2c(c1)CNC2)c1cc(F)cc2[nH]c(-c3ccc(F)cc3)nc12`, the microsomal CLint was found to be 36.8 µL/min/mg.
The same measure, in the same setting: the same measure for `CC(C)[C@H](Nc1ncnc2[nH]ccc12)c1ccc2c(c1)NC(=O)CO2` (single isomer, unassigned): 37 µL/min/mg and 80 µL/min/mg; for `CC(C)[C@H](Nc1ncnc2[nH]c(-c3cnn(CC(N)=O)c3)cc12)c1ccc2c(c1)OCCO2` (single isomer, unassigned): 16 µL/min/mg and 42 µL/min/mg; for `O=C(Nc1cc2c(c(-c3c[nH]c(=O)c(F)c3)c1)CNC2)c1cc(F)cc2[nH]ncc12`: 243 µL/min/mg.
`O=C(Nc1cc2c(c(C3=CCS(=O)(=O)CC3)c1)CNC2)c1cc(F)cc2[nH]ncc12`: the microsomal CLint came to 96.9 µL/min/mg.
The same measure, in the same setting: the same measure for `CC(C)NC(=O)[C@H](Nc1ccc2c(c1)CNC2)c1cc(Cl)cc2[nH]c(-c3ccccc3)nc12` (single isomer, unassigned): 11 µL/min/mg; for `COc1ccc([C@H](CC(=O)O)NC(=O)c2ncnc3[nH]ccc23)cc1` (racemic): 2 µL/min/mg.
